Experimental data: PMC9837035 (Nature Communications, 2023)
Several values for one entry are separate records, joined by “and”; a condition that tells them apart may be missing. Identical values can stand only once.

Tests used:
[1] = Hematological and hepatic parameters, 2-week repeated oral dosing; type: in vivo; settings: rats, two weeks
[2] = test system: bone marrow cells of rats; test: In vivo micronucleus assay
From the text: A negative control group was established, where the animals received orally 5% methylcellulose solution. […] We counted erythrocytes, recorded the frequencies of polychromatic erythrocyte (PCE) cells in 500 erythrocytes and micronucleated polychromatic erythrocyte (MNPCE) cells in 4000 PCE cells, and calculated the average frequency and the standard deviations for each treatment groups.

[3] = biological target: EZH2 (Homo sapiens, UniProt Q15910); test: Radioisotope-based methyltransferase assay (selectivity)
Sequence of EZH2 (Q15910 whole entry): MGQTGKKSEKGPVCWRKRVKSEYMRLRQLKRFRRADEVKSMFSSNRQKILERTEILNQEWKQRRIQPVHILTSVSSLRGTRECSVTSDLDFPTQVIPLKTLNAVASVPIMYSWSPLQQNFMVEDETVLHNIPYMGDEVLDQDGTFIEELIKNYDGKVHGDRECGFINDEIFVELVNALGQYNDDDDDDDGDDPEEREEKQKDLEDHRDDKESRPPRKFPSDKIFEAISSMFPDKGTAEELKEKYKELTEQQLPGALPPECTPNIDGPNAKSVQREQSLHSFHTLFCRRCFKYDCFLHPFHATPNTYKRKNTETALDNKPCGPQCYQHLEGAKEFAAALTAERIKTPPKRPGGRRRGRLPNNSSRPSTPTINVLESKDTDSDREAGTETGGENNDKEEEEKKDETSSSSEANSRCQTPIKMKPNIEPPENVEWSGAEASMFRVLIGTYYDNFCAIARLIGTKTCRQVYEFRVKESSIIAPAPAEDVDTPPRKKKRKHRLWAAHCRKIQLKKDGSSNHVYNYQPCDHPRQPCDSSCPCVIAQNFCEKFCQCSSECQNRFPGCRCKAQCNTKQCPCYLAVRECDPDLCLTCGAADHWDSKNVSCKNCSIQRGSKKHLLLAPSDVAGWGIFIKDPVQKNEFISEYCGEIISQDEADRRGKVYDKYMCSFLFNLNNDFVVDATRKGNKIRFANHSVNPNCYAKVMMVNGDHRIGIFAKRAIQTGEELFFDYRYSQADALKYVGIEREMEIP
Sequence of EZH2 (O75530 whole entry partner): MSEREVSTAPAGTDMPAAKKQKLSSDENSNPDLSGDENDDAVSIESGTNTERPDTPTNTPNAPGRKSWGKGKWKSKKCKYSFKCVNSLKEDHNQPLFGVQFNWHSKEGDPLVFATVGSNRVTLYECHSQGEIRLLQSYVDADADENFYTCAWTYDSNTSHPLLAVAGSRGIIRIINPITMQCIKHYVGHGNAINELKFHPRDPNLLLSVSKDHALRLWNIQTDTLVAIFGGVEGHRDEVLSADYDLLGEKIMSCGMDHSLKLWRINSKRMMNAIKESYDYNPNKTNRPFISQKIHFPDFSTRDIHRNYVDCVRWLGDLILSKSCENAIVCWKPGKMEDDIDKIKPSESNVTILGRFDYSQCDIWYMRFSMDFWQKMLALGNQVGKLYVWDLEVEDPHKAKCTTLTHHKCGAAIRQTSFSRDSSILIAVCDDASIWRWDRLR
Sequence of EZH2 (Q15022 whole entry partner): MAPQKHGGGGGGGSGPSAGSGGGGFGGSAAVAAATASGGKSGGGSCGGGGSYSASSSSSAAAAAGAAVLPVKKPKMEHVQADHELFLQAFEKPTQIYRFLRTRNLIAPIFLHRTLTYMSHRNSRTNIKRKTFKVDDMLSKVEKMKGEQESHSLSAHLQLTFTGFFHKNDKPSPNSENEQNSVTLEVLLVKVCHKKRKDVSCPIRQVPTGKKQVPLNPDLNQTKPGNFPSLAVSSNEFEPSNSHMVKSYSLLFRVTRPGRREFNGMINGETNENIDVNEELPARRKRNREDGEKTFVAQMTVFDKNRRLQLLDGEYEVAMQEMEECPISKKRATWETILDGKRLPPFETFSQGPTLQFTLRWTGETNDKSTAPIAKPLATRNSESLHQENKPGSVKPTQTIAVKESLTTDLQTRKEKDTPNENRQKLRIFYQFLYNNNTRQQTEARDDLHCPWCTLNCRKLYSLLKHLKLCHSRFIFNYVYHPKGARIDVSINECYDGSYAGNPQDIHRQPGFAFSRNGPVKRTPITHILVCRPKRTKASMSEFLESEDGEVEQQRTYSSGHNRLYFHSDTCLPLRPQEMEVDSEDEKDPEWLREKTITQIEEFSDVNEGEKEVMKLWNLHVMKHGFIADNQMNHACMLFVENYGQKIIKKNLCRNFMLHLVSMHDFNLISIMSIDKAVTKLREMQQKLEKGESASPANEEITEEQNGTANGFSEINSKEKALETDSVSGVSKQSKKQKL
Sequence of EZH2 (Q09028 whole entry partner): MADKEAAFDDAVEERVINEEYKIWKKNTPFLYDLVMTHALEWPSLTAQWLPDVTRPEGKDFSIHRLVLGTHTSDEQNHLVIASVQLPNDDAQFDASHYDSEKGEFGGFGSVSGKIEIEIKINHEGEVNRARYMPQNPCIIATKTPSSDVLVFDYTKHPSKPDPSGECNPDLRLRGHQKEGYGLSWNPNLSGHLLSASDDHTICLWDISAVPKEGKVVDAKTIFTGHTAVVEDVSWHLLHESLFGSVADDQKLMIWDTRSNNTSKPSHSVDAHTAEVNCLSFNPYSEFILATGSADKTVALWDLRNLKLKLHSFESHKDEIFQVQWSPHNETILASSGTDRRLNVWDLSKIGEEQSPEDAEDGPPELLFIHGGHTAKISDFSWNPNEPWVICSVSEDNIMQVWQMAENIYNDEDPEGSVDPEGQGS
Sequence of EZH2 (Q6ZN18 whole entry partner): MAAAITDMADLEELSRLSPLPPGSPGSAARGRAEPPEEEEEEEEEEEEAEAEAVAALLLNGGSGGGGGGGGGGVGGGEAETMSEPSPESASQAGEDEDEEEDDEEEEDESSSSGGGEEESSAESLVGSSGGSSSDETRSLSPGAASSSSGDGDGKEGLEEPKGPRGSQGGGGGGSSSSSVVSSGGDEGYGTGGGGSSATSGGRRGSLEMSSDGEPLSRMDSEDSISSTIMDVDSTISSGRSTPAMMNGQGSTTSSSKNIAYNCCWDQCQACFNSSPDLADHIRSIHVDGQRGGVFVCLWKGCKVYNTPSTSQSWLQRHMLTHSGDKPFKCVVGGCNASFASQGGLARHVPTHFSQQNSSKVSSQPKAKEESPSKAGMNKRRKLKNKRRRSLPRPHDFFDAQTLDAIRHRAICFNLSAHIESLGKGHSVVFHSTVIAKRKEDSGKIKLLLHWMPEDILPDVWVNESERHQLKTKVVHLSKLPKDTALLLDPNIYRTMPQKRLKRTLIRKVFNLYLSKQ

[4] = Dose 10 mg/kg, individual animals
[5] = Dose 30 mg/kg, individual animals
[6] = Dose 100 mg/kg, individual animals
[7] = male rats, oral 2 weeks, 10 mg/kg, Mean ± S.D.
[8] = male rats, oral 2 weeks, 30 mg/kg, Mean ± S.D.
[9] = male rats, oral 2 weeks, 100 mg/kg, Mean ± S.D.

Cc1c(C(=O)NC(CCC2CC2)C(=O)Nc2ccc(C#N)cc2)[nH]c2c1C(=O)CC(C)(C)C2 (centres unmarked) [RK-701]
Lymph ([1]; 10 mg/kg): 51.4 ± 10.7 x 102 cells/μL
MCH ([1]; 10 mg/kg): 20.4 ± 0.6 pg
MCHC ([1]; 10 mg/kg): 34.6 ± 0.3 g/dL
MCV ([1]; 10 mg/kg): 58.9 ± 1.6 fL
MONO ([1]; 10 mg/kg): 0.9 ± 0.2 x 102 cells/μL
NEUT ([1]; 10 mg/kg): 6.4 ± 1.7 x 102 cells/μL
PL ([1]; 10 mg/kg): 121 ± 18 mg/dL
RBC ([1]; 10 mg/kg): 741 ± 19 x 104 cells/μL
Retic ([1]; 10 mg/kg): 190 ± 28.3 x 109 cells/L
T-CHO ([1]; 10 mg/kg): 68 ± 13 mg/dL
TG ([1]; 10 mg/kg): 24 ± 15 mg/dL
TP ([1]; 10 mg/kg): 6.0 ± 0.3 g/dL
WBC ([1]; 10 mg/kg): 59.8 ± 12.2 x 102 cells/μL
ALB ([1]; 30 mg/kg): 3.5 ± 0.2 g/dL
ALP ([1]; 30 mg/kg): 511 ± 141 IU/L
ALT ([1]; 30 mg/kg): 26 ± 3 IU/L
AST ([1]; 30 mg/kg): 64 ± 7 IU/L
EOS ([1]; 30 mg/kg): 0.5 ± 0.1 x 102 cells/μL
HCT ([1]; 30 mg/kg): 42.6 ± 1.4%
HGB ([1]; 30 mg/kg): 14.5 ± 0.5 g/dL
LUC ([1]; 30 mg/kg): 0.4 ± 0.1 x 102 cells/μL
Lymph ([1]; 30 mg/kg): 53.0 ± 10.3 x 102 cells/μL
MCH ([1]; 30 mg/kg): 20.0 ± 1.0 pg
MCHC ([1]; 30 mg/kg): 34.0 ± 0.5 g/dL
MCV ([1]; 30 mg/kg): 58.7 ± 2.6 fL
MONO ([1]; 30 mg/kg): 0.9 ± 0.1 x 102 cells/μL
NEUT ([1]; 30 mg/kg): 6.7 ± 2.1 x 102 cells/μL
PLT ([1]; 30 mg/kg): 122 ±15.7 x 104 cells/μL
RBC ([1]; 30 mg/kg): 726 ± 36 x 104 cells/μL
Retic ([1]; 30 mg/kg): 228 ± 37.5 x 109 cells/L
T-CHO ([1]; 30 mg/kg): 64 ± 5 mg/dL
TG ([1]; 30 mg/kg): 17 ± 6 mg/dL
TP ([1]; 30 mg/kg): 5.9 ± 0.2 g/dL
WBC ([1]; 30 mg/kg): 61.6 ± 9.2 x 102 cells/μL
ALB ([1]; 100 mg/kg): 3.4 ± 0.1 g/dL
ALP ([1]; 100 mg/kg): 566 ± 181 IU/L
ALT ([1]; 100 mg/kg): 29 ± 5 IU/L
AST ([1]; 100 mg/kg): 64 ± 5 IU/L
EOS ([1]; 100 mg/kg): 0.6 ± 0.2 x 102 cells/μL
HCT ([1]; 100 mg/kg): 42.9 ± 1.1%
HGB ([1]; 100 mg/kg): 14.8 ± 0.3 g/dL
LUC ([1]; 100 mg/kg): 0.5 ± 0.2 x 102 cells/μL
Lymph ([1]; 100 mg/kg): 64.6 ± 14.9 x 102 cells/μL
MCH ([1]; 100 mg/kg): 20.3 ± 0.2 pg
MCHC ([1]; 100 mg/kg): 34.4 ± 0.3 g/dL
MCV ([1]; 100 mg/kg): 59.0 ± 0.7 fL
MONO ([1]; 100 mg/kg): 1.2 ± 0.4 x 102 cells/μL
NEUT ([1]; 100 mg/kg): 7.8 ± 2.9 x 102 cells/μL
PL ([1]; 100 mg/kg): 137 ± 26 mg/dL
Retic ([1]; 100 mg/kg): 179 ± 45.9 x 109 cells/L
T-CHO ([1]; 100 mg/kg): 88 ± 20 mg/dL
TG ([1]; 100 mg/kg): 19 ± 10 mg/dL
TP ([1]; 100 mg/kg): 5.8 ± 0.2 g/dL
WBC ([1]; 100 mg/kg): 74.8 ± 16.8 x 102 cells/μL
MNPCE (%) [2, 4]: 0.15% and 0.18% and 0.13% and 0.23%
No. of PCE in 500 erythrocytes [2, 4]: 331 and 285 and 278 and 305 and 288
Number of MNPCE in 4000 PCE [2, 4]: 6 and 7 and 5 and 9
PCE (%) [2, 4]: 66.2% and 57% and 55.6% and 61% and 57.6%
MNPCE (%) [2, 5]: 0.08% and 0.1%
No. of PCE in 500 erythrocytes [2, 5]: 299 and 308 and 294 and 330 and 306
Number of MNPCE in 4000 PCE [2, 5]: 3 and 4
PCE (%) [2, 5]: 59.8% and 61.6% and 58.8% and 66% and 61.2%
MNPCE (%) [2, 6]: 0.13% and 0.1% and 0.18% and 0.15%
No. of PCE in 500 erythrocytes [2, 6]: 258 and 313 and 314 and 323 and 328
Number of MNPCE in 4000 PCE [2, 6]: 5 and 4 and 7 and 6
PCE (%) [2, 6]: 51.6% and 62.6% and 62.8% and 64.6% and 65.6%
MNPCE (%) [2, 7]: 0.17 ± 0.04%
No. of PCE in 500 erythrocytes [2, 7]: 297 ± 21
PCE (%) [2, 7]: 59.5 ± 4.2%
MNPCE (%) [2, 8]: 0.09 ± 0.01%
No. of PCE in 500 erythrocytes [2, 8]: 307 ± 14
Number of MNPCE in 4000 PCE [2, 8]: 4 ± 1
PCE (%) [2, 8]: 61.5 ± 2.8%
MNPCE (%) [2, 9]: 0.13 ± 0.03%
No. of PCE in 500 erythrocytes [2, 9]: 307 ± 28
Number of MNPCE in 4000 PCE [2, 9]: 5 ± 1
PCE (%) [2, 9]: 61.4 ± 5.6%
Number of MNPCE in 4000 PCE ([2]; male rats, oral once a day 2 weeks, 10 mg/kg, Mean ± S.D.): 7 ± 1
formation of micronuclei in bone marrow cells ([2]; rats, oral, up to 100 mg/kg, two weeks): did not cause the formation of micronuclei
IC50 [3]: > 100 µM
